Where “and” joins values, the source holds several entries; their conditions need not be identical. Identical values can stand only once.
Tests used:
[1] = excess molar enthalpy (molar enthalpy of mixing); xn = mol fraction of the nth substance listed; settings: 298.15 K, 101 kPa, Liquid, Isothermal Titration Calorimeter
[2] = xn = mol fraction of the nth substance listed; settings: 298.15 K, 101 kPa, Liquid, Vibrating tube method

CCCCCC[n+]1ccn(C)c1.O=S(=O)([N-]S(=O)(=O)C(F)(F)F)C(F)(F)F + CCCCCCO
[1]
Settings	excess molar enthalpy [kcal/mol]
x2 = 0.0045	0.00956
x2 = 0.0089	0.0189
x2 = 0.0132	0.0282
x2 = 0.0176	0.037
x2 = 0.0219	0.0459
x2 = 0.0261	0.0545
x2 = 0.0304	0.0629
x2 = 0.0345	0.071
x2 = 0.0387	0.0791
x2 = 0.0428	0.0868
x2 = 0.0469	0.0946
x2 = 0.0509	0.102
x2 = 0.0549	0.109
x2 = 0.0589	0.117
x2 = 0.0629	0.124

CCn1cc[n+](C)c1.O=S(=O)([N-]S(=O)(=O)C(F)(F)F)C(F)(F)F + CCCCCCO
[1]
Settings	excess molar enthalpy [kcal/mol]
x2 = 0.0036	0.00621
x2 = 0.0072	0.0117
x2 = 0.0107	0.0165
x2 = 0.0142	0.0206
x2 = 0.0177	0.0239
x2 = 0.0212	0.0265
x2 = 0.0246	0.0287

CCCCCC[n+]1ccn(C)c1.O=S(=O)([N-]S(=O)(=O)C(F)(F)F)C(F)(F)F + CCCCO
[1]
Settings	excess molar enthalpy [kcal/mol]
x2 = 0.0064	0.0141
x2 = 0.0127	0.0277
x2 = 0.019	0.0411
x2 = 0.0252	0.0543
x2 = 0.0313	0.0672
x2 = 0.0373	0.0796
x2 = 0.0432	0.092
x2 = 0.0491	0.104
x2 = 0.0549	0.116
x2 = 0.0606	0.127
x2 = 0.0663	0.138
x2 = 0.0719	0.149
x2 = 0.0774	0.16
x2 = 0.0829	0.171
x2 = 0.0883	0.181

CCn1cc[n+](C)c1.O=S(=O)([N-]S(=O)(=O)C(F)(F)F)C(F)(F)F + CCCCO
[1]
Settings	excess molar enthalpy [kcal/mol]
x2 = 0.0051	0.0103
x2 = 0.0102	0.0203
x2 = 0.0152	0.0304
x2 = 0.0201	0.0399
x2 = 0.025	0.0495
x2 = 0.0299	0.0586
x2 = 0.0347	0.0676
x2 = 0.0395	0.0765
x2 = 0.0442	0.0851
x2 = 0.0488	0.0935
x2 = 0.0535	0.102
x2 = 0.0581	0.11
x2 = 0.0626	0.118
x2 = 0.0671	0.125
x2 = 0.0715	0.133

CCCCCC[n+]1ccn(C)c1.O=S(=O)([N-]S(=O)(=O)C(F)(F)F)C(F)(F)F + CCO
[1]
Settings	excess molar enthalpy [kcal/mol]
x2 = 0.0095	0.0195
x2 = 0.0189	0.0383
x2 = 0.0281	0.0564
x2 = 0.0371	0.0739
x2 = 0.046	0.0907
x2 = 0.0547	0.107
x2 = 0.0632	0.123
x2 = 0.0716	0.138
x2 = 0.0798	0.152
x2 = 0.0879	0.166
x2 = 0.0959	0.18
x2 = 0.1037	0.193
x2 = 0.1114	0.206
x2 = 0.1189	0.218
x2 = 0.1263	0.23

CCn1cc[n+](C)c1.O=S(=O)([N-]S(=O)(=O)C(F)(F)F)C(F)(F)F + CCO
[1]
Settings	excess molar enthalpy [kcal/mol]
x2 = 0.0083	0.0143
x2 = 0.0165	0.0282
x2 = 0.0245	0.0416
x2 = 0.0324	0.0545
x2 = 0.0402	0.0669
x2 = 0.0479	0.0791
x2 = 0.0554	0.0908
x2 = 0.0628	0.102
x2 = 0.0702	0.113
x2 = 0.0773	0.124
x2 = 0.0844	0.134
x2 = 0.0914	0.144
x2 = 0.0983	0.154
x2 = 0.105	0.163
x2 = 0.1117	0.172

CCCCCCCCCCn1cc[n+](C)c1.O=S(=O)([N-]S(=O)(=O)C(F)(F)F)C(F)(F)F + CO
Settings	excess molar enthalpy [kcal/mol]	mass density [kg/m3]
[1], x2 = 0.0171	0.0146	–
[1], x2 = 0.0336	0.028	–
[1], x2 = 0.0496	0.0402	–
[1], x2 = 0.0651	0.0511	–
[1], x2 = 0.08	0.0614	–
[1], x2 = 0.0945	0.0705	–
[1], x2 = 0.1086	0.0789	–
[1], x2 = 0.1222	0.0863	–
[1], x2 = 0.1354	0.0932	–
[1], x2 = 0.1482	0.0994	–
[1], x2 = 0.1606	0.105	–
[1], x2 = 0.1727	0.11	–
[1], x2 = 0.1844	0.115	–
[1], x2 = 0.1958	0.119	–
[1], x2 = 0.2069	0.123	–
[2], x1 = 0.0001	–	789.6
[2], x1 = 0.0233	–	883.6
[2], x1 = 0.0513	–	963.28
[2], x1 = 0.1054	–	1054.89
[2], x1 = 0.1417	–	1094.51
[2], x1 = 0.1679	–	1115.13
[2], x1 = 0.2161	–	1147.23
[2], x1 = 0.2452	–	1163.25
[2], x1 = 0.297	–	1183.51
[2], x1 = 0.4686	–	1228.19
[2], x1 = 0.5186	–	1236.02
[2], x1 = 0.762	–	1263.65
[2], x1 = 0.7868	–	1264.97
[2], x1 = 0.8756	–	1271.49
[2], x1 = 0.9503	–	1275.73
[2], x1 = 1	–	1278.57

CCCCCCCCn1cc[n+](C)c1.O=S(=O)([N-]S(=O)(=O)C(F)(F)F)C(F)(F)F + CO
Settings	excess molar enthalpy [kcal/mol]	mass density
[1], x2 = 0.0153	0.0206	–
[1], x2 = 0.0302	0.0402	–
[1], x2 = 0.0446	0.0586	–
[1], x2 = 0.0586	0.076	–
[1], x2 = 0.0721	0.0923	–
[1], x2 = 0.0853	0.108	–
[1], x2 = 0.0982	0.122	–
[1], x2 = 0.1106	0.136	–
[1], x2 = 0.1228	0.149	–
[1], x2 = 0.1346	0.162	–
[1], x2 = 0.1461	0.173	–
[1], x2 = 0.1573	0.184	–
[1], x2 = 0.1682	0.195	–
[1], x2 = 0.1788	0.205	–
[1], x2 = 0.1892	0.214	–
[2], x1 = 0.0001	–	791.05 kg/m3
[2], x1 = 0.0218	–	882.47 kg/m3
[2], x1 = 0.0599	–	986.86 kg/m3
[2], x1 = 0.0837	–	1031.65 kg/m3
[2], x1 = 0.1926	–	1153.62 kg/m3
[2], x1 = 0.2708	–	1198.9 kg/m3
[2], x1 = 0.3019	–	1213.08 kg/m3
[2], x1 = 0.5004	–	1267.25 kg/m3
[2], x1 = 0.8201	–	1308.01 kg/m3
[2], x1 = 0.8355	–	1308.78 kg/m3
[2], x1 = 0.989	–	1319.5 kg/m3
[2], x1 = 1	–	1320.55 kg/m3 and 1320.38 kg/m3

CCCCCC[n+]1ccn(C)c1.O=S(=O)([N-]S(=O)(=O)C(F)(F)F)C(F)(F)F + CO
Settings	excess molar enthalpy [kcal/mol]	mass density
[1], x2 = 0.0147	0.0257	–
[1], x2 = 0.029	0.0503	–
[1], x2 = 0.0429	0.0738	–
[1], x2 = 0.0564	0.0962	–
[1], x2 = 0.0695	0.118	–
[1], x2 = 0.0823	0.138	–
[1], x2 = 0.0947	0.158	–
[1], x2 = 0.1068	0.176	–
[1], x2 = 0.1186	0.194	–
[1], x2 = 0.13	0.211	–
[1], x2 = 0.1412	0.228	–
[1], x2 = 0.1521	0.243	–
[1], x2 = 0.1627	0.258	–
[1], x2 = 0.1731	0.272	–
[1], x2 = 0.1832	0.286	–
[2], x1 = 0.0001	–	792.92 kg/m3
[2], x1 = 0.0002	–	792.66 kg/m3
[2], x1 = 0.0003	–	792.92 kg/m3
[2], x1 = 0.0711	–	1017.33 kg/m3
[2], x1 = 0.0868	–	1047.67 kg/m3
[2], x1 = 0.1772	–	1163.23 kg/m3
[2], x1 = 0.2176	–	1195.97 kg/m3
[2], x1 = 0.2695	–	1228.24 kg/m3
[2], x1 = 0.4991	–	1308.41 kg/m3
[2], x1 = 0.5488	–	1318.7 kg/m3
[2], x1 = 0.5851	–	1325.38 kg/m3
[2], x1 = 1	–	1371.91 kg/m3 and 1371.79 kg/m3

CCCC[n+]1ccn(C)c1.O=S(=O)([N-]S(=O)(=O)C(F)(F)F)C(F)(F)F + CO
Settings	excess molar enthalpy [kcal/mol]	mass density [kg/m3]
[1], x2 = 0.0131	0.0218	–
[1], x2 = 0.0258	0.0423	–
[1], x2 = 0.0383	0.0617	–
[1], x2 = 0.0504	0.08	–
[1], x2 = 0.0622	0.0973	–
[1], x2 = 0.0737	0.114	–
[1], x2 = 0.0849	0.129	–
[1], x2 = 0.0959	0.144	–
[1], x2 = 0.1066	0.157	–
[1], x2 = 0.1171	0.171	–
[1], x2 = 0.1273	0.183	–
[1], x2 = 0.1373	0.195	–
[1], x2 = 0.147	0.206	–
[1], x2 = 0.1566	0.216	–
[1], x2 = 0.1659	0.226	–
[2], x1 = 0.0844	–	1054.48
[2], x1 = 0.1155	–	1109.91
[2], x1 = 0.1594	–	1168.72
[2], x1 = 0.1722	–	1182.69
[2], x1 = 0.264	–	1259.96
[2], x1 = 0.6327	–	1388.71
[2], x1 = 0.8245	–	1418.09
[2], x1 = 1	–	1436.29

CCn1cc[n+](C)c1.O=S(=O)([N-]S(=O)(=O)C(F)(F)F)C(F)(F)F + CO
Settings	excess molar enthalpy [kcal/mol]	mass density
[1], x2 = 0.0118	0.0158	–
[1], x2 = 0.0233	0.0311	–
[1], x2 = 0.0346	0.0454	–
[1], x2 = 0.0456	0.0593	–
[1], x2 = 0.0563	0.0722	–
[1], x2 = 0.0668	0.0848	–
[1], x2 = 0.0771	0.0966	–
[1], x2 = 0.0872	0.108	–
[1], x2 = 0.097	0.119	–
[1], x2 = 0.1067	0.129	–
[1], x2 = 0.1161	0.139	–
[1], x2 = 0.1253	0.148	–
[1], x2 = 0.1343	0.157	–
[1], x2 = 0.1432	0.165	–
[1], x2 = 0.1519	0.173	–
[2], x1 = 0.0001	–	792.63 kg/m3
[2], x1 = 0.0732	–	1040.6 kg/m3
[2], x1 = 0.1082	–	1115.5 kg/m3
[2], x1 = 0.1385	–	1165.23 kg/m3
[2], x1 = 0.2145	–	1258.12 kg/m3
[2], x1 = 0.2485	–	1289.7 kg/m3
[2], x1 = 0.2968	–	1325.28 kg/m3
[2], x1 = 0.3388	–	1351.25 kg/m3
[2], x1 = 0.6002	–	1451 kg/m3
[2], x1 = 0.6355	–	1459.63 kg/m3
[2], x1 = 0.7925	–	1487.15 kg/m3
[2], x1 = 0.837	–	1497.28 kg/m3
[2], x1 = 1	–	1518.63 kg/m3 and 1518.58 kg/m3

CO [methanol] + CCCCCCCCCCn1cc[n+](C)c1.O=S(=O)([N-]S(=O)(=O)C(F)(F)F)C(F)(F)F
Settings	mass density [kg/m3]
[2], x2 = 0	793.17

CO [methanol] + CCCCCCCCn1cc[n+](C)c1.O=S(=O)([N-]S(=O)(=O)C(F)(F)F)C(F)(F)F
Settings	mass density [kg/m3]
[2], x2 = 0	792.64

CO [methanol] + CCCCCC[n+]1ccn(C)c1.O=S(=O)([N-]S(=O)(=O)C(F)(F)F)C(F)(F)F
Settings	mass density [kg/m3]
[2], x2 = 0	792.66

CO [methanol] + CCCC[n+]1ccn(C)c1.O=S(=O)([N-]S(=O)(=O)C(F)(F)F)C(F)(F)F
Settings	mass density [kg/m3]
[2], x2 = 0	792.92

CO [methanol] + CCn1cc[n+](C)c1.O=S(=O)([N-]S(=O)(=O)C(F)(F)F)C(F)(F)F
Settings	mass density [kg/m3]
[2], x2 = 0	794.62
